In patent publication US20110039762A1, “TARGETED ANTIMICROBIAL MOIETIES” (C3 JIAN, INC., priority 2009, published 2011):
Entries after “also recorded” stand apart in the source; their conditions may differ.

Key:
[1] = system: microorganisms (e.g., bacteria, yeasts, fungi); test: Targeting peptide binding to target microorganisms (Table 3); conditions: preferably 1x PBS; for Target(s) (microorganisms bound by the targeting peptide): peptide binding in aqueous buffers varied by peptide solubility
[2] = system: microorganisms; test: Peptides having multiple activities (targeting/binding, antimicrobial, growth or phenotype altering)
Text: In certain embodiments, peptides described herein can have multiple activities. Thus for example, a peptide can have both binding/targeting activity and antimicrobial activity. Such peptides can be used, e.g., in a chimeric construct, for any or all of these properties. Thus, for example, a peptide designated “B” in Table 8 can be used as a targeting peptide. If it is also designated G or M it can also be used for antimicrobial activity.

[3] = system: S. mutans; test: Kill or inhibit growth/proliferation; morphology, biofilm and growth disruption (Tables 5, 6); assay type: cell-based, Streptococcus mutans; design: key: A: Peptide aggregates; B: Less hyphal formation; Clumps; Diffuse clumps and small polyps; F: Diffuse growth; H: Thin; I: Growth inhibition; Microcolony formation; Rippled; Small polyps; Thick; W: Halo formation on top, microlonies on bottom; note: test concentration or dose not given here
[4] = system: P. aeruginosa; test: as above; assay type: cell-based, Pseudomonas aeruginosa; design: key: A: Peptide aggregates; B: Less hyphal formation; Clumps; Diffuse clumps and small polyps; F: Diffuse growth; H: Thin; I: Growth inhibition; Microcolony formation; Rippled; Small polyps; Thick; W: Halo formation on top, microlonies on bottom; note: test concentration or dose not given here
[5] = system: MRSA; test: as above; assay type: cell-based, Methicillin-resistant Staphylococcus aureus; design: key: A: Peptide aggregates; B: Less hyphal formation; Clumps; Diffuse clumps and small polyps; F: Diffuse growth; H: Thin; I: Growth inhibition; Microcolony formation; Rippled; Small polyps; Thick; W: Halo formation on top, microlonies on bottom; note: test concentration or dose not given here
[6] = system: S. pneumoniae; test: as above; assay type: cell-based, Streptococcus pneumoniae; design: key: A: Peptide aggregates; B: Less hyphal formation; Clumps; Diffuse clumps and small polyps; F: Diffuse growth; H: Thin; I: Growth inhibition; Microcolony formation; Rippled; Small polyps; Thick; W: Halo formation on top, microlonies on bottom; note: test concentration or dose not given here
[7] = system: S. epidermidis; test: as above; assay type: cell-based, Staphylococcus epidermidis; design: key: A: Peptide aggregates; B: Less hyphal formation; Clumps; Diffuse clumps and small polyps; F: Diffuse growth; H: Thin; I: Growth inhibition; Microcolony formation; Rippled; Small polyps; Thick; W: Halo formation on top, microlonies on bottom; note: test concentration or dose not given here
[8] = system: M. luteus; test: as above; assay type: cell-based, Micrococcus luteus; design: key: A: Peptide aggregates; B: Less hyphal formation; Clumps; Diffuse clumps and small polyps; F: Diffuse growth; H: Thin; I: Growth inhibition; Microcolony formation; Rippled; Small polyps; Thick; W: Halo formation on top, microlonies on bottom; note: test concentration or dose not given here
[9] = system: E. coli; test: as above; assay type: cell-based, Escherichia coli; design: key: A: Peptide aggregates; B: Less hyphal formation; Clumps; Diffuse clumps and small polyps; F: Diffuse growth; H: Thin; I: Growth inhibition; Microcolony formation; Rippled; Small polyps; Thick; W: Halo formation on top, microlonies on bottom; note: test concentration or dose not given here
[10] = system: B. subtilis; test: as above; assay type: cell-based, Bacillus subtilis; design: key: A: Peptide aggregates; B: Less hyphal formation; Clumps; Diffuse clumps and small polyps; F: Diffuse growth; H: Thin; I: Growth inhibition; Microcolony formation; Rippled; Small polyps; Thick; W: Halo formation on top, microlonies on bottom; note: test concentration or dose not given here
[11] = system: C. jeikeium; test: as above; assay type: cell-based, Corynebacterium jeikeium; design: key: A: Peptide aggregates; B: Less hyphal formation; Clumps; Diffuse clumps and small polyps; F: Diffuse growth; H: Thin; I: Growth inhibition; Microcolony formation; Rippled; Small polyps; Thick; W: Halo formation on top, microlonies on bottom; note: test concentration or dose not given here
[12] = system: C. albicans; test: as above; assay type: cell-based, Candida albicans; design: key: A: Peptide aggregates; B: Less hyphal formation; Clumps; Diffuse clumps and small polyps; F: Diffuse growth; H: Thin; I: Growth inhibition; Microcolony formation; Rippled; Small polyps; Thick; W: Halo formation on top, microlonies on bottom; note: test concentration or dose not given here
[13] = system: E. faecalis; test: as above; assay type: cell-based, Enterococcus faecalis; design: key: A: Peptide aggregates; B: Less hyphal formation; Clumps; Diffuse clumps and small polyps; F: Diffuse growth; H: Thin; I: Growth inhibition; Microcolony formation; Rippled; Small polyps; Thick; W: Halo formation on top, microlonies on bottom; note: test concentration or dose not given here
[14] = microorganism the targeting peptide binds, binding in aqueous buffers varied by peptide solubility

Substance | Target(s) (microorganisms bound by the targeting peptide) [1] | Activities [2] | Organism, effect (morphology, biofilm and growth disruption) [3] | Organism, effect [5] | Organism, effect [6] | further results
GNVHPESDFHNLIQFIKTFLYFTIFFKYFL [PF-C290] | A. naeslundii; also recorded: F. nucleatum; also recorded: P. gingivalis; also recorded: S. mutans; also recorded: T. denticola | G B | S. mutans (F) | – | – | –
KKFKIFVIINWFYHKYIILNFEENF [PF-C085] | A. naeslundii; also recorded: F. nucleatum; also recorded: P. gingivalis; also recorded: S. mutans; also recorded: T. denticola | G B | S. mutans (F) | – | – | –
LSPRPIIVSRRSRADNNNDWSR [PF-143] | – | G B | – | – | – | Organism, effect [4]: P. aeruginosa (C); Target(s) ([1]; microorganism(s) the targeting peptide binds, binding in aqueous buffers depending on peptide solubility): S. epidermidis and MRSA and C. jeikeium
PF-020: peptide having multiple activities (chain 1 MKIILLLFLIFGFIVVVTLKSEHQLTLFSI; chain 2 MKIILLLFLIFGFIVVVTLKSEHQLTLFSI; Peptide with targeting and/or antimicrobial activity) | – | G B | – | MRSA (C) | S. pneumoniae (D) | Organism, effect [7]: S. epidermidis (C); Organism, effect [8]: M. luteus (C); Target(s) [1, 14]: S. epidermidis and M. luteus and C. albicans and MRSA and S. pneumoniae and E. faecalis; Organism, effect [3]: S. mutans (F)
PF-051: peptide having multiple activities (chain 1 RFFNFEIKKSTKVDYVFAHVDLSDV; chain 2 RFFNFEIKKSTKVDYVFAHVDLSDV; Peptide with targeting and/or antimicrobial activity) | – | G B | – | MRSA (D) | S. pneumoniae (D) | Organism, effect [7]: S. epidermidis (D); Organism, effect [8]: M. luteus (C); Target(s) [1, 14]: S. epidermidis and M. luteus and P. aeruginosa and C. albicans and MRSA and S. pneumoniae and E. faecalis; Organism, effect [3]: S. mutans (D)
PF-458: peptide having multiple activities (chain 1 ISLIIFIMLFVVALFKCITNYKHQS; chain 2 ISLIIFIMLFVVALFKCITNYKHQS; Peptide with targeting and/or antimicrobial activity) | – | G B | – | MRSA (M) | S. pneumoniae (M) | Organism, effect [4]: P. aeruginosa (H)
PF-535 (NIKTRKRALKIIKQHQRSK; Peptide with targeting and/or antimicrobial activity) | – | – | – | – | S. pneumoniae (H) | Organism, effect [4]: P. aeruginosa (H)
PF-543: peptide having multiple activities (chain 1 NILFGIIGFVVAMTAAVIVTAISIAK; chain 2 NILFGIIGFVVAMTAAVIVTAISIAK; Peptide with targeting and/or antimicrobial activity) | – | G B | – | MRSA (D) | S. pneumoniae (D) | Organism, effect [9]: E. coli (C); Organism, effect [7]: S. epidermidis (D); Organism, effect [8]: M. luteus (C); Organism, effect [3]: S. mutans (S)
PF-632: peptide having multiple activities (chain 1 TTIQGVASLEKHGFRYTIIYPTRI; chain 2 TTIQGVASLEKHGFRYTIIYPTRI; Peptide with targeting and/or antimicrobial activity) | S. epidermidis and P. aeruginosa and C. albicans and MRSA and S. pneumoniae and E. faecalis and C. jeikeium | G B | – | MRSA (D) | S. pneumoniae (M) | Organism, effect [10]: B. subtilis (H); Organism, effect [11]: C. jeikeium (D); Organism, effect [12]: C. albicans (B); Organism, effect [7]: S. epidermidis (D); Organism, effect [13]: E. faecalis (D)
PF-668 (chain 1 TNAESMALAFRGRVHMSVNIAGLT; chain 2 TNAESMALAFRGRVHMSVNIAGLT; Peptide with targeting and/or antimicrobial activity) | Mycobacteria spp | – | – | – | – | Organism, effect (morphology, biofilm and growth disruption) [10]: B. subtilis (A); Organism, effect (morphology, biofilm and growth disruption) [5]: MRSA (R); Organism, effect (morphology, biofilm and growth disruption) [6]: S. pneumoniae (M); Organism, effect (morphology, biofilm and growth disruption) [11]: C. jeikeium (D); Organism, effect (morphology, biofilm and growth disruption) [12]: C. albicans (A); Organism, effect (morphology, biofilm and growth disruption) [7]: S. epidermidis (M); Organism, effect (morphology, biofilm and growth disruption) [13]: E. faecalis (D)
PF-776: peptide having multiple activities (VSILLYLSATIILPNVLRLLVARAIIVRV; Peptide with targeting and/or antimicrobial activity) | S. epidermidis and M. luteus and P. mirabilis and C. albicans and MRSA and S. pneumoniae and E. faecalis | G B | S. mutans (D) | – | – | Organism, effect (morphology, biofilm and growth disruption) [9]: E. coli (C); Organism, effect (morphology, biofilm and growth disruption) [5]: MRSA (D); Organism, effect (morphology, biofilm and growth disruption) [6]: S. pneumoniae (C); Organism, effect (morphology, biofilm and growth disruption) [7]: S. epidermidis (D); Organism, effect (morphology, biofilm and growth disruption) [8]: M. luteus (C)
PF-C057: peptide having multiple activities (YFWWYWVQDCIPYKNNEVWLELSNNMK; Peptide with targeting and/or antimicrobial activity) | A. naeslundii; also recorded: F. nucleatum; also recorded: P. gingivalis; also recorded: S. mutans | G B | S. mutans (I) | – | – | –
PF-C139: peptide having multiple activities (LLASHPERLSLGVFFVYRVLHLLLENT; Peptide with targeting and/or antimicrobial activity) | A. naeslundii; also recorded: F. nucleatum; also recorded: P. gingivalis; also recorded: S. mutans; also recorded: T. denticola | G B | S. mutans (F) | – | – | –
PF-C142: peptide having multiple activities (DFPPLSFFRRRFHAYTAPIDNFFGANPF; Peptide with targeting and/or antimicrobial activity) | A. naeslundii; also recorded: F. nucleatum; also recorded: P. gingivalis; also recorded: S. mutans; also recorded: T. denticola | G B | S. mutans (I) | – | – | –
PF-C281: peptide having multiple activities (KKEKLLTAIRLQHRAEIRGYFTIFFLFFRI; Peptide with targeting and/or antimicrobial activity) | A. naeslundii; also recorded: F. nucleatum; also recorded: P. gingivalis; also recorded: S. mutans; also recorded: T. denticola | G B | S. mutans (F) | – | – | –
